# Measured values: patent publication US20230167088A1, “1-PYRAZINYLPYRAZOLYL-3-OXYALKYL ACIDS AND THEIR DERIVATIVES, AND THEIR USE FOR CONTROL OF UNDESIRED PLANT GROWTH” (BAYER AKTIENGESELLSCHAFT, priority 2020, published 2023)
# Columns and labels:
# ECHCG [1] = assay: Herbicidal post-emergence action 1a (greenhouse pots, visual rating); assay type: in vivo, Echinochloa crus-galli; settings: Dosage 320 g/ha; rated visually about 3 weeks after treatment; 100% = plants have died, 0% = like control plants
# In short: (§1)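 Weeds and crops sown in sandy loam in greenhouse pots were sprayed post-emergence at the one-leaf stage (2–3 weeks after sowing) with WP or EC formulations plus 0.5% additive at 600 l/ha water, 320 and/or 80 g/ha. About 3 weeks later damage was rated visually against untreated controls (0% = no effect, 100% = dead).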
# PHBPU = assay: as above; assay type: in vivo, Pharbitis purpurea; settings: visual rating about 3 weeks after treatment
# In short: as §1
# VIOTR [2] = assay: as above; assay type: in vivo, Viola tricolor; settings: visual rating about 3 weeks after treatment
# In short: as §1
# VERPE [3] = assay: as above; assay type: in vivo, Veronica persica; settings: visual rating about 3 weeks after treatment
# In short: as §1
# ALOMY = assay: Herbicidal pre-emergence action 2a (greenhouse pots, visual scoring); assay type: in vivo, Alopecurus myosuroides; settings: dosage 320 g/ha, visual scoring after about 3 weeks
# In short: (§2)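 The soil covering sown seeds is treated with an aqueous suspension or emulsion of wettable powder or emulsion concentrate (0.5% additive, 600 l/ha), corresponding to 320 g/ha and/or 80 g/ha. After about 3 weeks of greenhouse growth, damage is scored visually as a percentage.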
# SETVI [4] = assay: as above; assay type: in vivo, Setaria viridis; settings: dosage 320 g/ha, visual scoring after about 3 weeks vs untreated controls
# In short: as §2
# MATIN [5] = assay: as above; assay type: in vivo, Matricaria inodora; settings: dosage 320 g/ha, visual scoring after about 3 weeks vs untreated controls
# In short: as §2
# POLCO = assay: as above; assay type: in vivo, Polygonum convolvulus; settings: dosage 320 g/ha, visual scoring after about 3 weeks vs untreated controls
# In short: as §2
# VIOTR [6] = assay: as above; assay type: in vivo, Viola tricolor; settings: dosage 320 g/ha, visual scoring after about 3 weeks vs untreated controls
# In short: as §2
# VERPE [7] = assay: as above; assay type: in vivo, Veronica persica; settings: dosage 320 g/ha, visual scoring after about 3 weeks vs untreated controls
# In short: as §2
# AMARE = assay: Herbicidal pre-emergence action 2b (doubly sown, 1280 g/ha); assay type: in vivo, Amaranthus retroflexus; settings: doubly sown pots, dosage 1280 g/ha, visual scoring after about 3 weeks
# In short: (§3)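 Pots of sandy loam doubly sown with one monocot and one dicot weed species, covered, then soil surface sprayed pre-emergence with WP or EC formulations plus 0.5% additive at 600 l/ha water. Greenhouse-grown about 3 weeks; activity scored visually as % versus untreated controls (100% = dead).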
# MATIN [8] = assay: as above; assay type: in vivo, Matricaria inodora; settings: doubly sown pots, dosage 1280 g/ha, visual scoring after about 3 weeks
# In short: as §3
# STEME [9] = assay: as above; assay type: in vivo, Stellaria media; settings: doubly sown pots, dosage 1280 g/ha, visual scoring after about 3 weeks
# In short: as §3
# SETVI [10] = assay: Herbicidal post-emergence action 1a (greenhouse pots, visual rating); assay type: in vivo, Setaria viridis; settings: Dosage 320 g/ha; rated visually about 3 weeks after treatment; 100% = plants have died, 0% = like control plants
# In short: as §1
# ECHCG [11] = assay: Herbicidal post-emergence action 1b (twin sowing, 1280 g/ha); assay type: in vivo, Echinochloa crus-galli; settings: dosage 1280 g/ha, visual rating about 3 weeks after treatment
# In short: (§4)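 Twin-sown weeds in sandy loam, greenhouse-grown 2–3 weeks, sprayed post-emergence at one-leaf stage with WP/EC formulations plus 0.5% additive at 600 L/ha water. Damage rated visually about 3 weeks later versus untreated controls (100% = plants dead, 0% = like control).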
# STEME [12] = assay: as above; assay type: in vivo, Stellaria media; settings: dosage 1280 g/ha, visual rating about 3 weeks after treatment
# In short: as §4
# AVEFA = assay: Herbicidal pre-emergence action 2a (greenhouse pots, visual scoring); assay type: in vivo, Avena fatua; settings: dosage 320 g/ha, visual scoring after about 3 weeks
# In short: as §2
# ECHCG [13] = assay: Herbicidal pre-emergence action 2b (doubly sown, 1280 g/ha); assay type: in vivo, Echinochloa crus-galli; settings: doubly sown pots, dosage 1280 g/ha, visual scoring after about 3 weeks
# In short: as §3
# ECHCG [14] = assay: Herbicidal pre-emergence action 2a (greenhouse pots, visual scoring); assay type: in vivo, Echinochloa crus-galli; settings: dosage 320 g/ha, visual scoring after about 3 weeks
# In short: as §2
SMILES,Post-emergence action against ECHCG in % (ECHCG [1]) [%],Post-emergence action against PHBPU in % (PHBPU; dosage 80 g/ha) [%],Post-emergence action against VIOTR in % (VIOTR [2]; dosage 320 g/ha) [%],Post-emergence action against VERPE in % (VERPE [3]; dosage 320 g/ha) [%],Pre-emergence action against ALOMY in % (ALOMY) [%],Pre-emergence action against SETVI in % (SETVI [4]) [%],Pre-emergence action against MATIN in % (MATIN [5]) [%],Pre-emergence action against POLCO in % (POLCO) [%],Pre-emergence action against VIOTR in % (VIOTR [6]) [%],Pre-emergence action against VERPE in % (VERPE [7]) [%],Pre-emergence action at 1280 g/ha against AMARE in % (AMARE) [%],Pre-emergence action at 1280 g/ha against MATIN in % (MATIN [8]) [%],Pre-emergence action at 1280 g/ha against STEME in % (STEME [9]) [%],Post-emergence action against SETVI in % (SETVI [10]) [%],Post-emergence action against PHBPU in % (PHBPU; dosage 320 g/ha) [%],Post-emergence action against VIOTR in % (VIOTR [2]; dosage 80 g/ha) [%],Post-emergence action at 1280 g/ha against ECHCG in % (ECHCG [11]) [%],Post-emergence action at 1280 g/ha against STEME in % (STEME [12]) [%],Pre-emergence action against AVEFA in % (AVEFA) [%],Pre-emergence action at 1280 g/ha against ECHCG in % (ECHCG [13]) [%],also measured
"CCOC(=O)COc1nn(-c2cnccn2)c(-c2ccc(F)nc2)c1Br [Example I-52, ethyl {[4-bromo-5-(6-fluoropyridin-3-yl)-1-(pyrazin-2-yl)-1H-pyrazol-3-yl]oxy}acetate]",80,80,80,90,90,90,90,80,90,90,90,90,100,–,–,–,–,–,–,–,–
COC(=O)[C@@H](C)Oc1nn(-c2cnccn2)c(-c2ccc(F)c(F)c2)c1Br [Example I-45],80,–,90,80,100,100,100,100,100,80,100,100,100,80,90,80,100,100,80,100,–
COC(=O)COc1nn(-c2cnccn2)c(-c2ccc(F)nc2)c1Br [Example I-11],80,80,100,90,100,100,90,90,100,90,100,90,100,90,80,90,90,90,–,90,Post-emergence action against VERPE in % (VERPE [3]; dosage 80 g/ha): 90%
COC(=O)[C@@H](C)Oc1nn(-c2cnccn2)c(-c2ccc(F)c(F)c2)c1C#N [Example I-46],–,–,–,80,100,100,100,100,100,100,100,100,100,–,–,–,100,90,90,100,Pre-emergence action against ECHCG in % (ECHCG [14]): 100%
